The conditions of data set [1]: 300.15 K; 101.33 kPa; Liquid; Pycnometric method.
Data set [2] in a line: relative permittivity at zero frequency (dimensionless). As to conditions: 300.15 K; 101.33 kPa; Liquid; impedance analyzer.
Data set [3] in a line: refractive index (Na D-line) (dimensionless). As to conditions: 300.15 K; 101.33 kPa; Liquid; Standard Abbe refractometry.

The source of these data is the NIST ThermoML archive (doi:10.1016/j.jct.2011.10.028).

The mass density is the mass of a sample divided by its volume. By refractive index is commonly meant a measure of how strongly the sample bends light.

Numbers after ± are expanded uncertainties.

As for `CC(C)O` [propan-2-ol], in data set [1], the mass density is 779.2 ± 0.4 kg/m3. For the same compound, the “relative permittivity at zero frequency” value in data set [2] is recorded as 18.562 ± 0.001. The refractive index in data set [3] worked out at 1.383 ± 0.001.
For `CNc1ccccc1` [N-methylaniline] the same measures were 979.8 ± 0.6 kg/m3, 5.878 ± 0.001 and 1.566 ± 0.001.
For `CCCO` [propan-1-ol] the same measures were 798.5 ± 0.4 kg/m3, 20.678 ± 0.001 and 1.391 ± 0.001.
